Reference: patent US20050159359A1, “Methods and compositions for derepression of IAP-inhibited caspase” (The Burnham Institute, priority 2001, published 2005)
Where no end group is shown, it is not given here. [ ]: non-standard residue; d: D form. The star is where a group is joined. Phe(4-Cl) = N[C@@H](Cc1ccc(Cl)cc1)C(=O)O; dPhe(4-Cl) = N[C@H](Cc1ccc(Cl)cc1)C(=O)O; dPhe(4-F) = N[C@H](Cc1ccc(F)cc1)C(=O)O; 2Nal = N[C@@H](Cc1ccc2ccccc2c1)C(=O)O; d2Nal = N[C@H](Cc1ccc2ccccc2c1)C(=O)O; Fmoc = O=C(OCC1c2ccccc2-c2ccccc21)*; 2Thi = N[C@@H](Cc1cccs1)C(=O)O

Assays:
XIAP-inhibited caspase-3 = XIAP-inhibited caspase-3 (Homo sapiens, UniProt P98170); experiment: IAP derepression assay: Ac-DEVD-AFC hydrolysis by caspase-3 in presence of GST-XIAP; type: biochemical; conditions: tested at 0.4, 2, 10 and 50 micrograms per milliliter
Sequence of XIAP-inhibited caspase-3 (P98170 whole entry): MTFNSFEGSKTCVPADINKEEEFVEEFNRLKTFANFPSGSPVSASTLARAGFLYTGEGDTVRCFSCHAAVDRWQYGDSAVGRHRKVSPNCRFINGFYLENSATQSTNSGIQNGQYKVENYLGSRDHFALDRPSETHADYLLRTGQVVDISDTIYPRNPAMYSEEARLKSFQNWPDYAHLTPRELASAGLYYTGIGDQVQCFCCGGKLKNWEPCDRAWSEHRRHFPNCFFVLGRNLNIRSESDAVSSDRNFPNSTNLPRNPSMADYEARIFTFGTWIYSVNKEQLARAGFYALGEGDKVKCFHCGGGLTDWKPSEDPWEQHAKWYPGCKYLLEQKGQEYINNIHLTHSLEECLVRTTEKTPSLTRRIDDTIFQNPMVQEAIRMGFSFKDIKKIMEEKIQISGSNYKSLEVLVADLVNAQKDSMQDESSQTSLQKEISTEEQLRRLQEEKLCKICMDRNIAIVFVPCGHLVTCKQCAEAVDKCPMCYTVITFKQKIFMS
Method: Caspase activity was assayed by release of −7-amino-4-trifluoromethyl-coumarin (AFC) from Ac-DEVD-AFC synthetic peptides using a Molecular Devices Spectromax 340 (see Zhou et al., J. Biol. Chem. 272: 7797-7800 (1997)). […] The ratio of Vmax for hydrolysis of Ac-DEVD-AFC in the presence and absence of the candidate mixture was calculated and used to identify those that contain an agent that derepresses an IAP-inhibited caspase.
Screening of each mixture from the DCR390, TPI1239 or TPI1328 library, respectively, using the above described assay was carried out as follows. Each mixture was aliquoted in a 25 microliter volume and in duplicate to a well of a 96 well microtiter plate. […] Fluorescence of liberated AFC was immediately detected from each well for 30 minutes at 30 second intervals. The Vmax for hydrolysis of AC-DEVD-AFC from each well was measured using the softmax software package.

[1] = system: ALVA31 prostate cancer cells; experiment: ALVA31 cell viability (XTT dye-reduction and trypan blue dye exclusion); type: cell-based; conditions: IAP antagonist 40 μM or VP-16 100 μM, 24 hrs
Method: The in vivo effects of TPI792-33 or TPI792-35, either individually or in combination with the cytotoxic anticancer drug VP-16 (etoposide), on derepression of XIAP-inhibited caspase and viability of ALVA31 cells was determined as follows. ALVA31 prostate cancer cells were seeded onto 96 well plates (10^4 cells/well) in 100 μL RPMI containing 2.5% fetal bovine serum (FBS). […] After another 24 hrs incubation, cell viability was measured by the XTT dye-reduction assay (Roche, Molecular Biochemicals; Indianapolis, Ind.) and trypan blue dye exclusion assay.

[2] = system: normal bone marrow mononuclear cells; experiment: Toxicity to normal bone marrow mononuclear cells, Annexin V flow cytometry; type: cell-based; conditions: same culture conditions as Jurkat killing; 5 μM, 20 hours
Method: A comparison of the effects of TPI1396-34 on normal bone marrow cells versus Jurkat leukemia cells was performed as follows. TPI1396-34 (5 μM) was incubated with Jurkat cells or normal bone marrow mononuclear cells (6.25×10^5/mL) in RPMI and 2.5% FBS for 20 hours. After incubation, cells were washed, stained with FITC-conjugated Annexin V antibody and propidium iodide, and fluorescence measured by flow cytometry as described above.

full length XIAP = full length XIAP (Homo sapiens, UniProt P98170); experiment: SMAC competition assay: rhodamine labeled SMAC tetrapeptide AVPI and full length XIAP; conditions: for EC50: amount of compound necessary to restore Caspase-3 activity to 50% of Vmax; for Relative Potency: fold relative to SMAC AVPI tetrapeptide
Sequence of full length XIAP (P98170 whole entry): as above

[3] = system: U937 leukemia cells (U937-Neo, U937-XIAP); experiment: Apoptosis in U937 cells transfected with Neo-control or XIAP plasmid; type: cell-based; conditions: U937-XIAP vs U937-Neo, 5 or 8 μM, 20 hours
Method: After incubation, cells were washed, stained with FITC-conjugated Annexin V antibody and propidium iodide, and fluorescence measured by flow cytometry as described in Example X.

HeLa cells = experiment: Apoptosis in HeLa cells transfected with XIAP, XIAP mutants or Bcl-XL, Annexin V; type: cell-based; conditions: 5 μM, 20 hours
Method: In addition to transfecting the cells with full-length XIAP, analogous assays were performed with HeLa cells transfected with plasmids over-expressing various XIAP mutants. […] The mutant was produced by site-directed mutagenesis to modify positions 148, 219, 223, 314 and 323 to contain alanine. HeLa cells were also transiently transfected with plasmids encoding Bcl-XL, an anti-apoptotic protein that operates upstream of Caspases to suppress Cytochrome C release from mitochondria. HeLa cells (2.5×10^5) were seeded onto six well plates in 2 mL DMEM H21 with 5% FBS. After 24 hrs, cells were transfected (Gene Porter) with plasmids. At 48 hrs after transfection, cells were treated with 5 μM of TPI1396-34 for 20 hours. Both floating and adherent cells were then recovered from cultures, washed, and apoptosis was determined by Annexin V staining using flow cytometry.

[4] = Jurkat cell killing, Annexin V / propidium iodide flow cytometry; type: cell-based; conditions: human
Method: The following assay was used to test the ability of individual compounds from the TPI1396 and TPI1391 libraries to induce apoptosis of cultured tumor cell lines. Each of the compounds listed in Table IX was individually added to Jurkat leukemia cells (6.25×10^5 cells/mL) in RPMI containing 2.5% FBS at various concentrations for 20 hours. After incubation, cells were washed and stained with FITC-conjugated Annexin V antibody and propidium iodide (Biovision; Mountain View, Calif.). Cells were incubated for 20 minutes at room temperature in the dark and fluorescence was measured by flow cytometry (FACScan, Immunocytometry system; Becton-Dickinson; San Jose, Calif.). Cells staining positive for Annexin V were deemed non-viable.
The TPI1396-34 and TPI1391-28 compounds were further tested as set forth below.

caspase-3 and -7 = conditions: read-out: Ki for inhibition of caspase-3 and -7; reported; cited from earlier work

Q: Which “LC (lowest concentration with a ratio of 2 or higher in the derepression assay)” value (XIAP-inhibited caspase-3) does the source give for “(D-Nal)-(D-pClPhe)-(L-pClPhe)-(Lys-εFmoc) ([d2Nal][dPhe(4-Cl)][Phe(4-Cl)]K(Fmoc)) [TPI792-9]” here?
A: 10 µg/mL

Q: With “(L-ThiAla)-(Lys-εFmoc)-(L-pClPhe)-(pF-D-F) ([2Thi]K(Fmoc)[Phe(4-Cl)][dPhe(4-F)]) [TPI792-22]” as the compound, how does the “LC (lowest concentration with a ratio of 2 or higher in the derepression assay)” value (XIAP-inhibited caspase-3) read?
A: 2 µg/mL

Q: Which “LC (lowest concentration with a ratio of 2 or higher in the derepression assay)” value (XIAP-inhibited caspase-3) does the source give for “(D-Nal)-(L-Nal)-(L-pClPhe)-(Lys-εFmoc) ([d2Nal][2Nal][Phe(4-Cl)]K(Fmoc); also: 4: D-Lys-εFmoc in Table V) [TPI792-15]” here?
A: 2 µg/mL

Q: With “(D-Nal)-(L-Nal)-(D-Lys-εFmoc)-(Lys-εFmoc) ([d2Nal][2Nal][dK](Fmoc)K(Fmoc)) [TPI792-17]” as the compound, how does the “LC (lowest concentration with a ratio of 2 or higher in the derepression assay)” value (XIAP-inhibited caspase-3) read?
A: 2 µg/mL

Q: With COc1cc([C@@H]2c3cc4c(cc3[C@@H](O[C@@H]3O[C@@H]5CO[C@@H](C)O[C@H]5[C@H](O)[C@H]3O)[C@H]3COC(=O)[C@H]23)OCO4)cc(OC)c1O [VP-16, etoposide] as the compound, how does the “effect on viability of ALVA31 cells, agent alone” value [1] read?
A: essentially no effect

Q: For COc1ccc(CCN2CCC[C@@H]2CN(C(=O)Nc2ccccc2)[C@@H](CNC(=O)Nc2ccccc2)CC2CCCCC2)cc1 [TPI1396-34], which “toxicity to normal bone marrow cells” value [2] is on record?
A: little toxicity

Q: And the EC50 (full length XIAP)?
A: 33 µM

Q: What about the “effect of XIAP over-expression on apoptosis induction” value [3] of the same compound?
A: resistant

Q: What about the apoptosis (HeLa cells; HeLa expressing XIAP mutant with mutated SMAC-binding pocket) of the same compound?
A: not protected

Q: And the apoptosis (HeLa cells; HeLa expressing mutant of only the BIR2 domain)?
A: not protected

Q: What about the apoptosis (HeLa cells; HeLa expressing the BIR3 domain) of the same compound?
A: protected

Q: What about the apoptosis (HeLa cells; HeLa over-expressing Bcl-XL) of the same compound?
A: not blocked

Q: What about the apoptosis (HeLa cells; HeLa over-expressing full-length XIAP) of the same compound?
A: protected

Q: What about the apoptosis (HeLa cells; HeLa transfected with control vector) of the same compound?
A: induced apoptosis

Q: What does the source list for “H-AVPIAQK-NH2 [SMAC, H-Ala-Val-Pro-Ile-Ala-Gln-Lys-NH2]”?
A: percent nonviable cells at 20 hours, 50 µM ([4]; 50 μM): ~16%; percent nonviable cells at 20 hours, 100 µM ([4]; 100 μM): 15%

Q: Which “LC (lowest concentration with a ratio of 2 or higher in the derepression assay)” value (XIAP-inhibited caspase-3) does the source give for “(L-ThiAla)-(Lys-εFmoc)-(D-Nal)-(Lys-εFmoc) ([2Thi]K(Fmoc)[d2Nal]K(Fmoc)) [TPI792-19]” here?
A: 2 µg/mL

Q: For “cIAP2: cellular IAP protein, human inhibitor of apoptosis protein”, which Ki (caspase-3 and -7) is on record?
A: 0.0002 to 0.01 µM

Q: With CCCCCCCN1C(=O)C(=O)N([C@H](CCCC)CNCc2ccccc2)C[C@@H]1Cc1ccc2ccccc2c1 [TPI1391-21] as the compound, how does the EC50 (full length XIAP) read?
A: 37 µM

Q: What about the “Relative Potency” value (full length XIAP) of the same compound?
A: 3.4

Q: For CC(C)C[C@@H]1CN([C@H](CNCc2ccccc2)Cc2ccc3ccccc3c2)C(=O)C(=O)N1CCc1cccc(C(F)(F)F)c1 [TPI1391-28], which “toxicity to normal bone marrow cells” value [2] is on record?
A: little toxicity

Q: What about the “Relative Potency” value (full length XIAP) of the same compound?
A: 4.8

Q: For “(D-Nal)-(Lys-εFmoc)-(L-pClPhe)-(Lys-εFmoc) ([d2Nal]K(Fmoc)[Phe(4-Cl)]K(Fmoc); not fully specified; printed as (D-Nal)-(Lys-εFmoc)-(L-pClPhe)-(Lys-εFmoc)) [TPI792-3]”, which “LC (lowest concentration with a ratio of 2 or higher in the derepression assay)” value (XIAP-inhibited caspase-3) is on record?
A: 2 µg/mL

Q: Which “LC (lowest concentration with a ratio of 2 or higher in the derepression assay)” value (XIAP-inhibited caspase-3) does the source give for “(L-ThiAla)-(D-pClPhe)-(L-pClPhe)-(Lys-εFmoc) ([2Thi][dPhe(4-Cl)][Phe(4-Cl)]K(Fmoc)) [TPI792-27]” here?
A: 2 µg/mL
